Entries after “also recorded” stand apart in the source; their conditions may differ.
Key:
VEGF = test: Human VEGF in cell culture supernatant of L3.6p1 cells (Quantikine immunoassay); type: cell-based; conditions: 200 ng/ml peptide in the culture medium, 5 days
Description: Determination of human HGF and VEGF levels in cell culture medium of L3.6p1 cells were performed using the Quantikine Human HGF Immunoassay and Quantikine Human VEGF Immunoassay from […]. For this purpose 3×10^6 cells were cultured for 5 days in a 15 cm plate in the presence of the respective peptides as indicated. The supernatant (20 ml) was centrifuged (1200 rpm) and the assay was performed according to manufacturer's instructions.

[1] = test system: Met activation and downstream signaling to ERK; test: HGF-induced activation of Met and ERK in L3.6p1 cells (western blot); type: cell-based, human; conditions: HGF 10 ng/ml
Description: Serum-starved cells (24 hours) were induced with the growth factor HGF (10 ng/mL) at 37° C. for 5 minutes. Where indicated, the cells were treated with peptides (100 ng/ml) prior to induction at 37° C. for 10 minutes (100 ng/mL CD44v6 peptide or control peptide). Following the induction with HGF, cells were washed with ice-cold phosphate-buffered saline (PBS). To detect activated Met and Erk, cells were lysed in sodium dodecyl sulfate (SDS)-sample buffer containing 100 mM dithiothreitol (DTT), boiled and subjected to western blot analysis using antibodies against phospho-Met and ERK. The loading controls were performed on the same blot after stripping (62.5 mM Tris, pH 6.8, 2% SDS, 0.8% DTT) by probing with the Met respectively ERK antibody. Blots were stained using the enhanced chemiluminescence system (Thermo Fisher Scientific, Schwerte, Germany). Bands in western blot analysis were quantified with the program Image J (National Institutes of Health).
To expand the studies to human pancreatic tumors, the highly metastatic human pancreatic carcinoma cells L3.6p1 (Bruns, et al. Neoplasia (1999), 1(1):50-62) were investigated. These cells originate from the […] cells that have been passaged several times in the liver and the pancreas, a step that rendered them more and more metastatic. It was confirmed that Met is dependent on CD44v6 for its activation and signaling in these cells (FIG. 4A). The L3.6p1 cells were treated with HGF in the presence or absence of a human v6 peptide of SEQ ID NO: 2 or SEQ ID NO:6 and Met activation and downstream signaling to ERK was measured.

[2] = test system: L3.6p1 pancreatic carcinoma cells; test: Human orthotopic model, L3.6p1 cells in the pancreas of nude mice; type: in vivo, mouse; conditions: dose reduction experiment, 0.2 to 20 μg per injection three times per week for 3 weeks

Sequence: KEQWFGNRWHEGYR [human 14mer, human CD44v6 14mer peptide]
- hVEGF secretion by L3.6p1 cells (VEGF): can be blocked
- inhibition of HGF-induced activation (phosphorylation) of Met and ERK [1]: able to prevent activation of Met and of its downstream target Erk
- inhibition of HGF-induced activation (phosphorylation) of Met and ERK ([1]; listed as SEQ ID NO:6): Phosphorylation of both Met and ERK was inhibited
- size / growth of the primary tumor [2]: significant decrease of the size of the primary tumor; also recorded: reduces growth of the primary tumor

Reference: patent US9586993B2, “CD44v6-derived peptides for treating pancreatic cancer” (AMCURE GMBH, priority 2012, dated 2017)
